Experimental data from patent US20100234315A1, “COMPOSITIONS AND METHODS FOR TREATING PSYCHIATRIC AND […]” (priority 2009, published 2010).

What was measured:
Wistar Kyoto rats (WKY) = assay: Open-field locomotor activity (beam breaks, rearing) in WKY rats; format: in vivo, rat
Description: (§1) The effects of Protoveratrine B (PVB) on locomotor activity were determined using an open-field apparatus (High Density Cage Rack System; Kent Scientific Corporation). Adult spontaneously hypertensive rats (SHR) and adult Wistar Kyoto rats (WKY) were purchased from Charles River Laboratories. […] Sessions lasted 30-minutes and were separated by at least one day to diminish the likelihood of habituation to the apparatus. Three doses of PVB were investigated based upon the blood-pressure phase of the study: 0.01, 0.02 & 0.04 mg/kg.
(§2) The number of beam breaks was averaged across subjects and into 30-s bins. The upper panel represents the WKY control rats (N=8); the bottom panel represents the SHR rats (N=8). The different plots represent the baseline and different doses of PVB. Several details can be gleaned from the data. […] Second, activity levels in the SHRs appear to drop off precipitously throughout the session and eventually converge with the activity levels seen in the WKYs.
(§3) To better comprehend the effects of dose on locomotor activity, a dose-response graph was constructed for each rat strain. To construct these graphs, the number of beam breaks that occurred in the first thirty bins (first 15 min) of all rats within a strain was averaged and plotted as a function of dose. The resulting graphs, shown in FIG. 2, represent the effects of PVB on activity within the first 15 minutes post injection.
(§4) Another measure of activity level is rearing (measured by beam breaks of an infrared plane approximately 5″ above the floor of the chamber). Rearing data were analyzed in the same way as the horizontal beam breaks. The results are illustrated in FIG. 3. […] Unlike the horizontal activity, rearing activity in SHRs was decreased by the 0.01 mg/kg dose.

[1] = test system: spontaneously hypertensive rats (SHR); assay: Open-field locomotor activity (beam breaks, rearing) in SHR rats; format: in vivo, rat
Description: as §1, §2, §3, §4

SMILES: CC[C@@H](C)C(=O)O[C@H]1[C@H](O)[C@H]2[C@@H](CN3C[C@@H](C)CC[C@H]3[C@@]2(C)O)[C@@H]2C[C@]34O[C@]5(O)[C@@H](OC(=O)[C@](C)(O)[C@@H](C)O)CC[C@@]3(C)[C@@H]5[C@@H](OC(C)=O)[C@@H](OC(C)=O)[C@H]4[C@@]21O (stereo in doubt) [PVB, Protoveratrine B]
- relative potency between strains (Wistar Kyoto rats (WKY); WKY vs SHR, from dose-response functions, FIG. 2): slightly more potent in WKY than in SHR rats
- mean number of beam breaks, first 15 min, largest dose, WKY compared with SHR (Wistar Kyoto rats (WKY); WKY vs SHR, largest dose (0.04 mg/kg) i.p., FIG. 2): greater reduction in activity levels
- activity level (beam breaks) vs baseline (Wistar Kyoto rats (WKY); WKY, 0.01 mg/kg i.p., FIG. 1): reduced activity from baseline
- activity level, largest dose compared with lowest dose (Wistar Kyoto rats (WKY); WKY, 0.04 mg/kg vs 0.01 mg/kg i.p., FIG. 1): greater decrease in activity
- mean rearing, first 30 bins (Wistar Kyoto rats (WKY); WKY, 0.01-0.04 mg/kg i.p., FIG. 3): reduced rearing
- mean number of beam breaks, first thirty bins (first 15 min) (Wistar Kyoto rats (WKY); WKY, dose-response 0.01-0.04 mg/kg i.p., FIG. 2): reduced the mean number of beam breaks
- average activity level (number of beam breaks) as a function of time (Wistar Kyoto rats (WKY); WKY, i.p., 0.01-0.04 mg/kg, first half of 30-min session, FIG. 1): decreased activity levels
- mean number of beam breaks, first 15 min, lowest dose (Wistar Kyoto rats (WKY); WKY, lowest dose (0.01 mg/kg) i.p., FIG. 2): affected by the lowest dose
- activity level (beam breaks) vs baseline ([1]; 0.01 mg/kg i.p., FIG. 1): did not affect activity
- rearing activity at lowest dose ([1]; 0.01 mg/kg i.p., FIG. 3): decreased
- activity level, largest dose compared with lowest dose ([1]; 0.04 mg/kg vs 0.01 mg/kg i.p., FIG. 1): greater decrease in activity
- mean rearing, first 30 bins ([1]; 0.01-0.04 mg/kg i.p., FIG. 3): reduced rearing
- mean number of beam breaks, first thirty bins (first 15 min) ([1]; dose-response 0.01-0.04 mg/kg i.p., FIG. 2): reduced the mean number of beam breaks
- average activity level (number of beam breaks) as a function of time ([1]; i.p., 0.01-0.04 mg/kg, first half of 30-min session, FIG. 1): decreased activity levels
- mean number of beam breaks, first 15 min, lowest dose ([1]; lowest dose (0.01 mg/kg) i.p., FIG. 2): no activity-decreasing effect
